According to patent publication US20260355191A1, “PAN-RAS INHIBITOR COMPOUND” (ADLAI NORTYE BIOPHARMA CO., LTD., priority 2024, published 2026):
pIC50: −log10 of the molar value.

Columns and labels:
AsPC-1 = assay: In vitro cell proliferation inhibition assay (CellTiter-Glo), AsPC-1; type: cell-based; settings: AsPC-1, KRAS (p.G12D), 72 h; read-out: IC50, antiproliferative activity
Experimental: (§1) Due to the diversity of RAS mutations, and in order to evaluate the activity of the compounds in different RAS mutant cell lines, we selected cell lines with KRAS^G12D, KRAS^G12V, KRAS^G12c, NRAS^q61L, KRAS^G13D, KRAS^G12R, and KRAS^WT mutations (see the table below for in vitro activity evaluation and screening of the compounds.
(§2) According to the doubling time of different cell lines, different numbers of cells (1000-5000 cells/well) were seeded into 96-well plates containing 180 μL of the corresponding culture medium, and incubated overnight in a cell incubator at 37 °C with 5% C02. On the following day, the test compounds were pre-diluted in the culture medium in a 3-fold serial dilution series, with the highest concentration being […], resulting in 10 concentration gradients in total. Subsequently, 20 μL of culture medium containing the compounds at different concentrations was added to the cells in the 96-well plates, ensuring a final compound concentration of up to 10 μM, with 10 concentrations in 3-fold dilution. After co-incubation of the cells with the compounds for 72 h, the 96-well plates were removed from the incubator and equilibrated at room temperature for 30 min. Then, 25 μL of CellTiter-Glo® Reagent was added to each well and mixed thoroughly, followed by incubation at room temperature for 10 min. Subsequently, 100 μL of the samples was transferred to white 96-well plates (OptiPlate™-96, PerkinElmer), and […] signal values were read using a multifunctional microplate reader (SpectraMax i3x, Molecular Devices). The signal values were then normalized, and curve fitting was performed using a four-parameter logistic regression equation to calculate the half maximal inhibitory concentration (IC50) of the compounds against the cell lines.

SW480 = assay: In vitro cell proliferation inhibition assay (CellTiter-Glo), SW480; type: cell-based; settings: SW480, KRAS (p.G12V), 72 h; read-out: IC50, antiproliferative activity
Experimental: as §1, §2

H358 = assay: In vitro cell proliferation inhibition assay (CellTiter-Glo), H358; type: cell-based; settings: H358, KRAS (p.G12C), 72 h; read-out: IC50, antiproliferative activity
Experimental: as §1, §2

MV411 = assay: In vitro cell proliferation inhibition assay (CellTiter-Glo), MV411; type: cell-based; settings: MV411, KRAS wild type, 72 h; read-out: IC50, antiproliferative activity
Experimental: as §2

PSN1 = assay: In vitro cell proliferation inhibition assay (CellTiter-Glo), PSN1; type: cell-based; settings: PSN1, KRAS (p.G12R), 72 h; read-out: IC50, antiproliferative activity
Experimental: as §1, §2

HCT116 = assay: In vitro cell proliferation inhibition assay (CellTiter-Glo), HCT116; type: cell-based; settings: HCT116, KRAS (p.G13D), 72 h; read-out: IC50, antiproliferative activity
Experimental: as §1, §2

HepG2 = assay: In vitro cell proliferation inhibition assay (CellTiter-Glo), HepG2; type: cell-based; settings: HepG2, NRAS (p.Q61L), 72 h; read-out: IC50, antiproliferative activity
Experimental: as §1, §2

[1] = Pharmacokinetic study in mice; type: in vivo; settings: mouse, male CD-1 mice; for bioavailability: blood; for bioavailability / AUC / Cmax: po, p.o. 2 mpk; for bioavailability / Vd / clearance: i.v. 1 mpk; for Vd / clearance: iv, 1 mg/kg; for Vd / clearance / AUC / Cmax: whole blood; for AUC / Cmax: 2 mg/kg
Experimental: To evaluate the pharmacokinetic behavior of the compounds of the disclosure in male CD-1 mice, the test compounds were dissolved in a solvent (5% DMSO/10% solutol/85% water). Twelve male CD-1 mice were divided into two groups, with six animals in each group. Group 1 received a single intravenous bolus (i.v.) administration of the compound, and Group 2 received a single oral (p.o.) administration of the compound. Whole blood samples were collected at 0.083 h (intravenous group only), 0.25, 0.5, 1, 2, 4, 8, and 24 hours after dosing. The concentration of the test compound in whole blood samples was determined using the LC-MS/MS method.

| SMILES | pIC50 (AsPC-1) | pIC50 (SW480) | pIC50 (H358) | pIC50 (MV411) | pIC50 (PSN1) | pIC50 (HCT116) | pIC50 (HepG2) | bioavailability [1] [%] | Vd [1] [L/kg] | clearance [1] [mL/min/kg] | AUC [1] [ng·h/mL] | Cmax [1] [ng/mL] |
| --- | --- | --- | --- | --- | --- | --- | --- | --- | --- | --- | --- | --- |
| CCn1c(-c2cc(-c3nnc([C@H]4CCCN(C5COC5)C4)o3)cnc2[C@H](C)OC)c2c3cc(ccc31)-c1csc(n1)C[C@H](NC(=O)[C@H]1C[C@@H]1C)C(=O)N1CCC[C@H](N1)C(=O)OCC(C)(C)C2 (atropisomer, axis not shown) [Compound 18, (1S,2S)—N-((6^3S,4S,Z)-1^1-ethyl-1^2-(2-((S)-1-methoxyethyl)-5-(5-((S)-1-(oxetan-3-yl)piperidin-3-yl)-1,3,4-oxadiazol-2-yl)pyridin-3-yl)-10,10-dimethyl-5,7-dioxo-6^1,6^2,6^3,6^4,6^5,6^6-hexahydro-1^1H-8-oxa-2(4,2)-thiazola-1(5,3)-indola-6(1,3)-pyridazinacycloundecaphane-4-yl)-2-methylcyclopropane-1-carboxamide] | 10.52 | 9.89 | 9.41 | 7.89 | 8.28 | 7.64 | 8.80 | – | – | – | – | – |
| CCn1c(-c2cc(-c3nc(C4CCN(C5COC5)CC4)n(CCN(C)C)n3)cnc2[C@H](C)OC)c2c3cc(ccc31)-c1csc(n1)C[C@H](NC(=O)[C@H]1C[C@@H]1C)C(=O)N1CCC[C@H](N1)C(=O)OCC(C)(C)C2 (atropisomer, axis not shown) [Compound 27, (1S,2S)—N-((6^3S,4S,Z)-1^2-(5-(1-(2-(dimethylamino)ethyl)-5-(1-(oxetan-3-yl)piperidin-4-yl)-1H-1,2,4-triazol-3-yl)-2-((S)-1-methoxyethyl)pyridin-3-yl)-1^1-ethyl-10,10-dimethyl-5,7-dioxo-6^1,6^2,6^3,6^4,6^5,6^6-hexahydro-1^1H-8-oxa-2(4,2)-thiazola-1(5,3)-indola-6(1,3)-pyridazinacycloundecaphane-4-yl)-2-methylcyclopropane-1-carboxamide] | 9.43 | 9.06 | 9.77 | 8.96 | 9.80 | 7.96 | 10.30 | – | – | – | – | – |
| CCn1c(-c2cc(-c3nnc(C4CCN(C5COC5)CC4)o3)cnc2[C@H](C)OC)c2c3cc(ccc31)-c1csc(n1)C[C@H](NC(=O)[C@H]1[C@H](C)[C@@H]1C)C(=O)N1CCC[C@H](N1)C(=O)OCC(C)(C)C2 (atropisomer, axis not shown) [Compound 2, (1r,2R,3S)—N-((6^3S,4S,Z)-1^1-ethyl-1^2-(2-((S)-1-methoxyethyl)-5-(5-(1-(oxetan-3-yl)piperidin-4-yl)-1,3,4-oxadiazol-2-yl)pyridin-3-yl)-10,10-dimethyl-5,7-dioxo-6^1,6^2,6^3,6^4,6^5,6^6-hexahydro-1^1H-8-oxa-2(4,2)-thiazola-1(5,3)-indola-6(1,3)-pyridazinacycloundecaphane-4-yl)-2,3-dimethylcyclopropane-1-carboxamide] | 10.22 | 10.05 | 11.70 | 9.80 | 11.00 | 10.15 | 11.00 | 24.5 | 1.95 | 4.6 | 1790 | 167 |
| CCn1c(-c2cc(-c3nnc(C4CCN(C5COC5)CC4)o3)cnc2[C@H](C)OC)c2c3cc(ccc31)-c1csc(n1)C[C@H](NC(=O)[C@H]1C[C@@H]1C)C(=O)N1CCC[C@H](N1)C(=O)OCC(C)(C)C2 (atropisomer, axis not shown) [Compound 1, (1S,2S)—N-((6^3S,4S,Z)-1^1-ethyl-1^2-(2-((S)-1-methoxyethyl)-5-(5-(1-(oxetan-3-yl)piperidin-4-yl)-1,3,4-oxadiazol-2-yl)pyridin-3-yl)-10,10-dimethyl-5,7-dioxo-6^1,6^2,6^3,6^4,6^5,6^6-hexahydro-1^1H-8-oxa-2(4,2)-thiazola-1(5,3)-indola-6(1,3)-pyridazinacycloundecaphane-4-yl)-2-methylcyclopropane-1-carboxamide] | 10.30 | 10.15 | 10.22 | 8.77 | 8.29 | ~8.00 | 8.30 | – | – | – | – | – |
| CCn1c(-c2cc(-c3nc(C4CCN(C5COC5)CC4)n(C4COC4)n3)cnc2[C@H](C)OC)c2c3cc(ccc31)-c1csc(n1)C[C@H](NC(=O)[C@H]1C[C@@H]1C)C(=O)N1CCC[C@H](N1)C(=O)OCC(C)(C)C2 (atropisomer, axis not shown) [Compound 26, (1S,2S)—N-((6^3S,4S,Z)-1^1-ethyl-1^2-(2-((S)-1-methoxyethyl)-5-(1-(oxetan-3-yl)-5-(1-(oxetan-3-yl)piperidin-4-yl)-1H-1,2,4-triazol-3-yl)pyridin-3-yl)-10,10-dimethyl-5,7-dioxo-6^1,6^2,6^3,6^4,6^5,6^6-hexahydro-1^1H-8-oxa-2(4,2)-thiazola-1(5,3)-indola-6(1,3)-pyridazinacycloundecaphane-4-yl)-2-methylcyclopropane-1-carboxamide] | 9.60 | 9.27 | 11.00 | 9.19 | 10.10 | 8.49 | 9.60 | – | – | – | – | – |
| CO[C@@H](C)c1ncc(-c2nnc(C3CCN(C4CCN(C)CC4)CC3)o2)cc1-c1c2c3cc(ccc3n1CC(F)(F)F)-c1csc(n1)C[C@H](NC(=O)[C@H]1[C@@H]3COC[C@@H]31)C(=O)N1N[C@H](C(=O)OCC(C)(C)C2)C2CC1C2 [Example 45] | 10.22 | 9.43 | 11.00 | 9.38 | 10.40 | 8.96 | 10.66 | – | – | – | – | – |
| CO[C@@H](C)c1ncc(-c2nnc(C3CCN(C4COC4)C3)o2)cc1-c1c2c3cc(ccc3n1CC(F)(F)F)-c1csc(n1)C[C@H](NC(=O)[C@H]1[C@H](C)[C@@H]1C)C(=O)N1N[C@H](C(=O)OCC(C)(C)C2)C2CC1C2 (stereo partly drawn) [Example 46] | 10.30 | 10.22 | 11.00 | 9.00 | 10.05 | 9.24 | 10.30 | – | – | – | – | – |
| CO[C@@H](C)c1ncc(-c2noc(C3CCN(C4COC4)CC3)n2)cc1-c1c2c3cc(ccc3n1CC(F)(F)F)-c1csc(n1)C[C@H](NC(=O)[C@H]1[C@H](C)[C@@H]1C)C(=O)N1N[C@H](C(=O)OCC(C)(C)C2)C2CC1C2 [Example 42] | 11.00 | 10.70 | 10.52 | 9.25 | 11.00 | 10.52 | 11.00 | – | – | – | – | – |
| CCn1c(-c2cc(N3CCN(C)CC3)cnc2[C@H](C)OC)c2c3cc(ccc31)-c1csc(n1)C[C@H](NC(=O)[C@H]1C[C@@H]1C)C(=O)N1CCC[C@H](N1)C(=O)OCC(C)(C)C2 [RMC-6236] | 8.92 | 8.82 | 10.10 | 8.38 | 8.70 | 8.59 | 8.55 | – | – | – | – | – |
| CO[C@@H](C)c1ncc(-c2nnc(C3CCN(C4COC4)C[C@@H]3C)o2)cc1-c1c2c3cc(ccc3n1CC(F)(F)F)-c1csc(n1)C[C@H](NC(=O)[C@H]1[C@H](C)[C@@H]1C)C(=O)N1N[C@H](C(=O)OCC(C)(C)C2)C2CC1C2 (stereo partly drawn) [Compound 38] | 11.00 | 10.40 | 10.40 | 9.35 | 11.00 | 10.70 | 9.96 | – | – | – | – | – |
| CO[C@@H](C)c1ncc(-c2nnc(C3CCN(C4COC4)CC3)o2)cc1-c1c2c3cc(ccc3n1CC(F)(F)F)-c1csc(n1)C[C@H](NC(=O)C1C[C@@H]1C)C(=O)N1N[C@H](C(=O)OCC(C)(C)C2)C2CC1C2 (stereo partly drawn) [Compound 9] | 10.05 | 10.22 | 10.39 | 9.12 | 11.00 | 9.64 | 9.80 | 63.3 | 2.87 | 3.7 | 5740 | 248 |
